Laboratory results from the NIST ThermoML archive (doi:10.1016/j.jct.2016.04.014).

Assay: xn = mol fraction of the nth substance listed
Settings: Liquid, Vibrating tube method

CCCCCCC [heptane] + CCO
mass density [kg/m3]
Settings | 100 kPa | 500 kPa | 5000 kPa | 10000 kPa | 15000 kPa | 20000 kPa | 25000 kPa | 30000 kPa | 35000 kPa | 40000 kPa
323.15 K, x1 = 0.2505 | – | – | – | – | 726.1 | 730.6 | 734.8 | 738.9 | 742.7 | 746.4
323.15 K, x1 = 0.5004 | – | – | – | – | 699.4 | 704 | 708.4 | 712.4 | 716.3 | 720.1
323.15 K, x1 = 0.7501 | – | – | – | – | 683 | 687.7 | 692 | 696 | 699.9 | 703.6
333.15 K, x1 = 0.2505 | 701.1 | 701.6 | 706.9 | 712.5 | 717.6 | 722.4 | 726.9 | 731.2 | 735.2 | 739.1
333.15 K, x1 = 0.5004 | 674 | 674.5 | 680 | 685.7 | 691 | 695.9 | 700.5 | 704.8 | 708.9 | 712.8
333.15 K, x1 = 0.7501 | 657.7 | 658.2 | 663.8 | 669.6 | 674.9 | 679.8 | 684.3 | 688.6 | 692.7 | 696.6
353.15 K, x1 = 0.2505 | – | 681.4 | 687.7 | 694.1 | 700 | 705.5 | 710.5 | 715.3 | 719.7 | 724
353.15 K, x1 = 0.5004 | – | 654.2 | 660.8 | 667.5 | 673.6 | 679.1 | 684.3 | 689.1 | 693.7 | 698.1
353.15 K, x1 = 0.7501 | – | 638.4 | 645.1 | 651.8 | 657.9 | 663.5 | 668.6 | 673.4 | 678 | 682.3
373.15 K, x1 = 0.2505 | – | 659.3 | 666.9 | 674.5 | 681.4 | 687.6 | 693.3 | 698.6 | 703.6 | 708.4
373.15 K, x1 = 0.5004 | – | 632.2 | 640.2 | 648.1 | 655.3 | 661.7 | 667.5 | 672.9 | 678 | 682.9
373.15 K, x1 = 0.7501 | – | 617.2 | 625.3 | 633.3 | 640.4 | 646.8 | 652.6 | 658 | 663 | 667.9
